Measurements as given in ChEMBL document CHEMBL5260854, “Discovery of Novel TRPM8 Blockers Suitable for the Treatment of Somatic and Ocular Painful Conditions: A Journey through pKa and LogD Modulation” (J Med Chem, 2021).
Values after ≈ are worked out from the molar mass of the structure shown. One block for each compound: values may come before it. Active and inactive are the calls of the source. No cut-off for these calls is given here.

Assays:
[1] = target: T1, Transient receptor potential cation channel subfamily M member 8 (Homo sapiens, UniProt Q7Z2W7); experiment: Inhibition of human TRPM8 expressed in HEK293 cells assessed as reduction in ethyl 4-methoxy-2-phenylthiazole-5-carboxylate induced Ca2+ efflux preincubated for 5 mins followed by ethyl 4-methoxy-2-phenylthiazole-5-carboxylate addition and measured for 3 mins by FLIPR assay; assay type: cell-based
T1 sequence (Q7Z2W7 whole entry): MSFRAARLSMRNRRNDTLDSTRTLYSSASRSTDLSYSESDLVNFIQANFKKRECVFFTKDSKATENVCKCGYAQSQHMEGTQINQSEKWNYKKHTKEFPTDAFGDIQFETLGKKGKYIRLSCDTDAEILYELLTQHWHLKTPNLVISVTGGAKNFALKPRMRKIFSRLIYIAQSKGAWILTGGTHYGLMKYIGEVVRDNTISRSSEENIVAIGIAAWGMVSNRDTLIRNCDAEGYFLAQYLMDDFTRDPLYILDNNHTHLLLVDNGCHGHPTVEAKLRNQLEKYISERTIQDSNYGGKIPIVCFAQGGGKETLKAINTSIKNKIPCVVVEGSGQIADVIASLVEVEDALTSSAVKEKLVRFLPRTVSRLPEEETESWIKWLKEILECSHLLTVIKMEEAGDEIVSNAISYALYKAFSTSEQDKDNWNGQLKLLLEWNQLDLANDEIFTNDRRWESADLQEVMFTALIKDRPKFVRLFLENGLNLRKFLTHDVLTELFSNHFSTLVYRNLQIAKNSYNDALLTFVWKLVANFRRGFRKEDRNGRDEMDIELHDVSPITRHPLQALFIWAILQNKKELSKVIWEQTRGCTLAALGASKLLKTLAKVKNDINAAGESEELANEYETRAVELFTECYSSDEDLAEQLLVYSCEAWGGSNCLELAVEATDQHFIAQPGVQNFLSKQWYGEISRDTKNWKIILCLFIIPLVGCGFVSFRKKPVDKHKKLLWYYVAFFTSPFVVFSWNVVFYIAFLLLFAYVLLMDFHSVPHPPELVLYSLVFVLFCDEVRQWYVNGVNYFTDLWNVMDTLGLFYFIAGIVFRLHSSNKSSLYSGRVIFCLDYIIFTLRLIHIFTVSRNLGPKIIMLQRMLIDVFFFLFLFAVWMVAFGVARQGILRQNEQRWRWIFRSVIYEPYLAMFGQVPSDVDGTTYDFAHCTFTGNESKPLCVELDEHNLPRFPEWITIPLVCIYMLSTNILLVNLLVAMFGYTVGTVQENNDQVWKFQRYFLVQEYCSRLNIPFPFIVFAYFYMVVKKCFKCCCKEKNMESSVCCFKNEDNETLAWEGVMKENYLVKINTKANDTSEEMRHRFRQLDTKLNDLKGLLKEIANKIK

[2] = Apparent permeability in HCECs at 0.1%; assay type: ADME, cell-based, HCEC; conditions: human, not told
[3] = Metabolic stability in rat liver microsomes assessed as phase 1 metabolism by measuring half life; assay type: ADME, Microsome
[4] = Clearance in rat at 10 mg/kg, iv; assay type: ADME, organism-based; conditions: in vivo
[5] = Metabolic stability in rat liver microsomes assessed as parent compound remaining after 4 hrs; assay type: ADME, Microsome; conditions: read-out: Stability
[6] = Half life in rat at 10 mg/kg, iv; assay type: ADME, organism-based; conditions: in vivo
[7] = Stability in stimulated gastric fluid at pH 1.2; assay type: physicochemical; conditions: simulated gi fluid
[8] = Oral bioavailability in rat at 10 mg/kg; assay type: ADME, organism-based; conditions: in vivo
[9] = Cmax in rat at 10 mg/kg, po; assay type: ADME, organism-based; design: dose 10 mg/kg, route po; conditions: in vivo
[10] = Solubility of compound at pH 7.4; assay type: physicochemical; conditions: buffer
[11] = Volume of distribution at steady state in rat at 10 mg/kg, iv; assay type: ADME, organism-based; conditions: in vivo, read-out: Vdss
[12] = Dissociation constant, pKa of the compound; assay type: physicochemical
[13] = Lipophilicity, logD of the compound at pH 7.4; assay type: physicochemical; conditions: buffer
[14] = Metabolic stability in rat liver microsomes assessed as phase 2 metabolism by measuring half life; assay type: ADME, Microsome
[15] = Half life in rat at 10 mg/kg, po; assay type: ADME, organism-based; conditions: in vivo
[16] = Metabolic stability in rat liver microsomes assessed as parent compound remaining after 30 mins; assay type: ADME, Microsome; conditions: for remaining at 0.5 h: read-out: Stability
[17] = Lipophilicity, logP of compound; assay type: physicochemical; conditions: octanol/water
[18] = Clearance in rat at 3 mg/kg, iv; assay type: ADME, organism-based; conditions: in vivo
[19] = Stability in human plasma assessed as compound remaining after 60 mins; assay type: ADME, cell-free; conditions: read-out: Stability
[20] = Stability in human hepatocytes assessed as half life; assay type: ADME, cell-based, Hepatocyte
[21] = Volume of distribution at steady state in rat at 3 mg/kg, iv; assay type: ADME, organism-based; conditions: in vivo, read-out: Vdss
[22] = Stability in rat plasma assessed as compound remaining after 60 mins; assay type: ADME, cell-free; conditions: read-out: Stability
[23] = Half life in rat at 3 mg/kg, iv; assay type: ADME, organism-based; conditions: in vivo
[24] = Metabolic stability in human liver S9 fraction assay as half life in presence of NADPH, glutathione, UDPGA and PAPS; assay type: ADME, subcellular
[25] = Half life in rat at 5 mg/kg, iv; assay type: ADME, organism-based; conditions: in vivo
[26] = target: Transient receptor potential cation channel subfamily V member 1 (Homo sapiens) (UniProt Q8NER1); experiment: Inhibition of TRPV1 (unknown origin) upto 100 uM
Sequence of Transient receptor potential cation channel subfamily V member 1 (Homo sapiens) (Q8NER1 whole entry): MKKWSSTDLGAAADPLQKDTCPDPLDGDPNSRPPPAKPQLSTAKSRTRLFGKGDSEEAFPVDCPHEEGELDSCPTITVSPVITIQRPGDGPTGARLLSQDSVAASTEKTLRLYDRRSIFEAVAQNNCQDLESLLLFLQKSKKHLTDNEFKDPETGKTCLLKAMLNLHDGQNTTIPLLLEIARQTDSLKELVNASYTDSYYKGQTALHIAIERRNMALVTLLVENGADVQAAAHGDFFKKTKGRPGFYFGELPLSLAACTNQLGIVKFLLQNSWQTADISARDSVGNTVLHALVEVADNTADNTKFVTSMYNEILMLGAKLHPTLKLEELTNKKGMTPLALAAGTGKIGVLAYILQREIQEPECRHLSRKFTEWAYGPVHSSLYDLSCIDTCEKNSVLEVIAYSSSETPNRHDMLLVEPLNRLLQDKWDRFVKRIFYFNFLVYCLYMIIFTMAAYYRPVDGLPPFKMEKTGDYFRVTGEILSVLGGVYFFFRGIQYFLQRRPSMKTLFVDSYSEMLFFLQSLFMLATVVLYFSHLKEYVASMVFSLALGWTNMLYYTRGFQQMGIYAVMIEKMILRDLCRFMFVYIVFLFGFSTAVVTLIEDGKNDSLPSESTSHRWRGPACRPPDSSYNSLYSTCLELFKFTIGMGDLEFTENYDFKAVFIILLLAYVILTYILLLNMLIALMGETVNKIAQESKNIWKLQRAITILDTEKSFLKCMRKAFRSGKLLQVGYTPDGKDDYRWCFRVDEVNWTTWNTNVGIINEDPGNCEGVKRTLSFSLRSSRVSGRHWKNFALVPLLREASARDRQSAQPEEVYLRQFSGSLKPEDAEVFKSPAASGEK

[27] = target: Transient receptor potential cation channel subfamily V member 4 (Homo sapiens) (UniProt Q9HBA0); experiment: Inhibition of TRPV4 (unknown origin) upto 100 uM
Sequence of Transient receptor potential cation channel subfamily V member 4 (Homo sapiens) (Q9HBA0 whole entry): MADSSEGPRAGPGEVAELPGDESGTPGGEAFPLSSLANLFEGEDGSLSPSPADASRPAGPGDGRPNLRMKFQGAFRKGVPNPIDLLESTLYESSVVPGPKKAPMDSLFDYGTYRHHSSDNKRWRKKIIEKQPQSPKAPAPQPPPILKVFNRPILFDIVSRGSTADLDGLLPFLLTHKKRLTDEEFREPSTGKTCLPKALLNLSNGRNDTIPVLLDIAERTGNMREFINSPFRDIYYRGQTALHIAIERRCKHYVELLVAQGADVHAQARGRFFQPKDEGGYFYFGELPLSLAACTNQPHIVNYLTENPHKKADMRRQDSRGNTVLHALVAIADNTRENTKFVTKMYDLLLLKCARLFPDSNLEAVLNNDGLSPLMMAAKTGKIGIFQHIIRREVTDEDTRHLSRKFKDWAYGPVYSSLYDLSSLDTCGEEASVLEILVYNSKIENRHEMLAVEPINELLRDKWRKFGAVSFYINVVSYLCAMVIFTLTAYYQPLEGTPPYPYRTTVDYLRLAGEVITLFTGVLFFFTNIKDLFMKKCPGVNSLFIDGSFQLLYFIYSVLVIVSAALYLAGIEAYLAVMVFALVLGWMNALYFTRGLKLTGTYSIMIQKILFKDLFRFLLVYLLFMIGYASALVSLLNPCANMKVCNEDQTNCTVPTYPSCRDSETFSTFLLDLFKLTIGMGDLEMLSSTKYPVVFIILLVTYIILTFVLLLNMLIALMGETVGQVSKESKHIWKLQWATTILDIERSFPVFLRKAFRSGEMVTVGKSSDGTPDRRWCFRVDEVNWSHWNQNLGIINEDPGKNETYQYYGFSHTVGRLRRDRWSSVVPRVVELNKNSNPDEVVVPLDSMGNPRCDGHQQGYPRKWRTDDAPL

[28] = Volume of distribution at steady state in rat at 5 mg/kg, iv; assay type: ADME, organism-based; conditions: in vivo, read-out: Vdss
[29] = target: T1, Transient receptor potential cation channel subfamily M member 8; experiment: Inhibition of human TRPM8 expressed in HEK293 cells assessed as reduction in cold stimulated Ca2+ efflux preincubated for 5 mins followed by cold stimulation and measured for 3 mins; assay type: cell-based
[30] = Clearance in rat at 5 mg/kg, iv; assay type: ADME, organism-based; conditions: in vivo
[31] = target: Transient receptor potential cation channel subfamily A member 1 (Homo sapiens) (UniProt O75762); experiment: Inhibition of TRPA1 (unknown origin) upto 100 uM
Sequence of Transient receptor potential cation channel subfamily A member 1 (Homo sapiens) (O75762 whole entry): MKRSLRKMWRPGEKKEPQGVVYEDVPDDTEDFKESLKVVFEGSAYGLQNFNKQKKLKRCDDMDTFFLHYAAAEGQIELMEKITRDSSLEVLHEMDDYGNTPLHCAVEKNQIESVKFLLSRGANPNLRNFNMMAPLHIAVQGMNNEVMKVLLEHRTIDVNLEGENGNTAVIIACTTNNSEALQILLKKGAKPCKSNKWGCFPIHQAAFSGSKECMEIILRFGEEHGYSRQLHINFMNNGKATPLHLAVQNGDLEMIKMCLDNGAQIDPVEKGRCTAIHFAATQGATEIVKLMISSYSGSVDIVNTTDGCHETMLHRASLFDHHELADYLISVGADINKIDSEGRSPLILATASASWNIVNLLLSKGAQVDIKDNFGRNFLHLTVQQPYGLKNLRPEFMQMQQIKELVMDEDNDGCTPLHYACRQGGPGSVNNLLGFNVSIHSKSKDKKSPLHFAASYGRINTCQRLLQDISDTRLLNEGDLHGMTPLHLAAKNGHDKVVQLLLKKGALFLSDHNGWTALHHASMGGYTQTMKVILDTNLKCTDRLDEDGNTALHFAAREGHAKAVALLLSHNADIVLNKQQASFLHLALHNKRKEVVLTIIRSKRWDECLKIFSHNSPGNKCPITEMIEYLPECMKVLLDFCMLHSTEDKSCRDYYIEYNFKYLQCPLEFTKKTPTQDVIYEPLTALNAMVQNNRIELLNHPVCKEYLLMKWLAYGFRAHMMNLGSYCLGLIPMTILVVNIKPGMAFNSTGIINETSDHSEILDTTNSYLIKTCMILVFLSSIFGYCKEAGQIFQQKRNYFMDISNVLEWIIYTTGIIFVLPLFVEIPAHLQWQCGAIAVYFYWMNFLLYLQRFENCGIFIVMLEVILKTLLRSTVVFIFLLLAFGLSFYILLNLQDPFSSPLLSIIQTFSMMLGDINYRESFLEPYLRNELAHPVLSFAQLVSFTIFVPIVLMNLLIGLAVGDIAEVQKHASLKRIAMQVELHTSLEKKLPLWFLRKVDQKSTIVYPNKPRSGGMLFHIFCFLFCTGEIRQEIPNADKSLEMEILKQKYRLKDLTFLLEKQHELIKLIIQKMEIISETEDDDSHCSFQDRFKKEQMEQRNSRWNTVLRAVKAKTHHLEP

[32] = target: Transient receptor potential cation channel subfamily M member 3 (Homo sapiens) (UniProt Q9HCF6); experiment: Inhibition of TRPM3 (unknown origin) upto 100 uM
[33] = target: T1, Transient receptor potential cation channel subfamily M member 8; experiment: Inhibition of human TRPM8 expressed in HEK293 cells assessed as reduction in icilin induced Ca2+ efflux preincubated for 5 mins followed by icilin addition and measured for 3 mins by FLIPR assay; assay type: cell-based
[34] = target: Sodium channel protein type 9 subunit alpha (Homo sapiens) (UniProt Q15858); experiment: Inhibition of Nav1.7 (unknown origin)

SMILES: O=C(c1sc(-c2cccc(F)c2)nc1O)N1CCCOC1
IC50 [1]: > 100 µM

SMILES: Cn1nnc(-c2sc(-c3cccc(F)c3)nc2O)n1
IC50 [1]: 0.214 µM

SMILES: CCOC(=O)c1cnc(-c2ccccc2)s1
IC50 [1]: > 100 µM

SMILES: Cc1nnc(-c2sc(-c3cccc(F)c3)nc2O)o1
IC50 [1]: 9.1 µM

SMILES: O=C(c1sc(-c2cccc(F)c2)nc1O)N1CCCCCO1
IC50 [1]: 0.032 µM

SMILES: CCOC(=O)c1sc(-c2ccccc2)nc1CO
IC50 [1]: > 100 µM

SMILES: O=C(O)c1sc(-c2ccccc2)nc1O
IC50 [1]: > 100 µM

SMILES: CCNC(=O)c1sc(-c2ccccc2)nc1O
IC50 [1]: > 100 µM

SMILES: CCOC(=O)c1sc(-c2cccc(F)c2)nc1O
half-life [3]: 27 min
clearance [4]: 1.44 L/h/kg
remaining at 4 h [5]: 105%
half-life [6]: 33.6 min
Stability [7]: 50%
bioavailability [8]: 15%
Cmax [9]: 2.14 µg/mL
solubility [10]: 0.08 mM (≈ 21.4 µg/mL)
Vd [11]: 0.259 L/kg
pKa [12]: 4.7
logD [13]: 1.5
half-life [14]: > 5 min
IC50 [1]: 0.039 µM
half-life [15]: 137 min

SMILES: CC(C)C(=O)c1sc(-c2cccc(F)c2)nc1O
half-life [3]: 59.1 min
pKa [12]: 4.27
logD [13]: 0.91
half-life [14]: 97.8 min

SMILES: CCn1nnc(-c2sc(-c3cccc(F)c3)nc2O)n1
half-life [3]: 38 min
clearance [18]: 0.187 L/h/kg
remaining at 1 h [19]: 95%
half-life [20]: 56.7 min
bioavailability [8]: 1%
Cmax [9]: 0.047 µg/mL
half-life [16]: < 30 min
solubility [10]: 0.631 mM (≈ 184 µg/mL)
Vd [21]: 0.082 L/kg
pKa [12]: 5.9
logD [13]: 2
half-life [14]: > 5 min
remaining at 1 h [22]: 92%
half-life [23]: 44.4 min
half-life [15]: 307 min

SMILES: CCOC(=O)c1sc(-c2ccccc2)nc1OC
IC50 [1]: > 100 µM

SMILES: CCn1nnc(-c2sc(-c3ccc(O)cc3)nc2O)n1
IC50 [1]: 11.6 µM

SMILES: CCOC(=O)c1ccc(-c2cccc(F)c2)cc1O
IC50 [1]: > 100 µM

SMILES: CCn1nnc(-c2sc(-c3c(Cl)cccc3Cl)nc2O)n1
IC50 [1]: 16.5 µM

SMILES: CCn1nnc(-c2sc(-c3ccc(Cl)cc3)nc2O)n1
IC50 [1]: 7.55 µM

SMILES: O=C(c1sc(-c2ccccc2O)nc1O)N1CCCO1
inhibition [26]: inactive
inhibition [27]: inactive
half-life [24]: 53 min
Papp at 0.1 % [2]: 483 nm/s
solubility [10]: 9.7 mM (≈ 2840 µg/mL)
inhibition [31]: inactive
pKa [12]: 9.3
logD [13]: 0.77
IC50 [33]: 0.0045 µM
inhibition [34]: inactive

SMILES: CCOC(=O)Cc1sc(-c2ccccc2)nc1O
IC50 [1]: 0.95 µM

SMILES: CCOC(=O)c1oc(-c2ccc(Cl)cc2)nc1O
IC50 [1]: > 100 µM

SMILES: CCN(CC)c1ccc2c(-c3ccccc3C(=O)O)c3ccc(=[N+](CC)CC)cc-3oc2c1.[Cl-] [RHODAMINE]
Papp at 0.1 % [2]: 366 nm/s

Second part, the compound after the results:

IC50 [1]: 1.8 µM
SMILES: Cc1nc(-c2sc(-c3cccc(F)c3)nc2O)no1

IC50 [1]: > 100 µM
SMILES: CCn1nnnc1-c1sc(-c2cccc(F)c2)nc1O

Papp at 0.1 % [2]: 19 nm/s
SMILES: O=C(O)c1ccc(C(=O)O)c(-c2c3ccc(=O)cc-3oc3cc(O)ccc23)c1 [6-Carboxyfluorescein]

IC50 [1]: 0.061 µM
SMILES: CCn1nnc(-c2sc(-c3cccc(N)c3)nc2O)n1

remaining at 0.5 h [16]: 32%
IC50 [1]: 0.575 µM
logP [17]: 3.6
SMILES: CCN(C(=O)/C=C/c1cccc([N+](=O)[O-])c1)c1ccccc1

IC50 [1]: > 100 µM
SMILES: CCOC(=O)c1sc(-c2ccccc2)nc1N

half-life [3]: 39.3 min
pKa [12]: 4.31
logD [13]: 1.18
half-life [14]: 127 min
SMILES: CCCC(=O)c1sc(-c2cccc(F)c2)nc1O

IC50 [1]: 0.286 µM
SMILES: CCn1nnc(-c2sc(-c3ccc(F)cc3)nc2O)n1

half-life [3]: 35.2 min
pKa [12]: 4.1
logD [13]: 0.77
half-life [14]: 108 min
SMILES: CC(=O)c1sc(-c2cccc(F)c2)nc1O

IC50 [1]: > 100 µM
SMILES: COC(=O)c1nc(-c2ccccc2)sc1O

remaining at 0.5 h [16]: 41%
logP [17]: 3.57
SMILES: CSc1cc(-c2ccc(Cl)cc2)[nH]n1

half-life [24]: > 120 min
Papp at 0.1 % [2]: 164 nm/s
solubility [10]: 7.1 mM (≈ 2090 µg/mL)
pKa [12]: 6.3
logD [13]: 0.82
SMILES: O=C(c1sc(-c2cccc(F)c2)nc1O)N1CCCO1

IC50 [1]: 0.032 µM
SMILES: CCOC(=O)c1sc(-c2ccccc2)nc1O

half-life [3]: 118 min
half-life [25]: 189 min
inhibition [26]: inactive
inhibition [27]: inactive
bioavailability [8]: 98.8%
Vd [28]: 1.69 L/kg
Cmax [9]: 10.7 µg/mL
IC50 [29]: 0.0085 µM
solubility [10]: 15.2 mM (≈ 3820 µg/mL)
clearance [30]: 0.319 L/h/kg
inhibition [31]: inactive
inhibition [32]: inactive
logD [13]: 0.44
half-life [14]: 136 min
IC50 [33]: 0.033 µM
IC50 [1]: 0.029 µM
half-life [15]: 188 min
SMILES: CCC(=O)c1sc(-c2cccc(F)c2)nc1O

IC50 [1]: 1.68 µM
SMILES: CCON(C)C(=O)c1sc(-c2cccc(F)c2)nc1O

remaining at 0.5 h [16]: 29%
pKa [12]: 7.8
logD [13]: 3.19
logP [17]: 4.33
SMILES: COc1cccc(NS(=O)(=O)c2c(C)cc(C)c([N+](=O)[O-])c2C)c1

IC50 [1]: 1.3 µM
SMILES: CCOC(=O)c1sc(-c2cccc(Cl)c2)nc1O

half-life [3]: 49.8 min
pKa [12]: 4.3
logD [13]: 1.35
half-life [14]: 156 min
IC50 [1]: 0.289 µM
SMILES: CC(C)CC(=O)c1sc(-c2cccc(F)c2)nc1O

IC50 [1]: 0.239 µM
SMILES: CCn1nnc(-c2sc(-c3cccc(O)c3)nc2O)n1

IC50 [1]: 12.2 µM
SMILES: O=C(c1sc(-c2cccc(F)c2)nc1O)N1CCOCC1

IC50 [1]: > 100 µM
SMILES: Oc1nc(-c2cccc(F)c2)sc1-c1nn[nH]n1

remaining at 0.5 h [16]: 42%
pKa [12]: 6.3
logD [13]: 2.5
logP [17]: 3.77
SMILES: COC(=O)c1sc(-c2ccccc2)nc1O
